Assays:
ENPP3 = target: T1, ENPP3 (Homo sapiens, UniProt O14638); experiment: ENPP3 Km ATP assay; type: biochemical; details: ATP at Km
T1 sequence (O14638 1-875): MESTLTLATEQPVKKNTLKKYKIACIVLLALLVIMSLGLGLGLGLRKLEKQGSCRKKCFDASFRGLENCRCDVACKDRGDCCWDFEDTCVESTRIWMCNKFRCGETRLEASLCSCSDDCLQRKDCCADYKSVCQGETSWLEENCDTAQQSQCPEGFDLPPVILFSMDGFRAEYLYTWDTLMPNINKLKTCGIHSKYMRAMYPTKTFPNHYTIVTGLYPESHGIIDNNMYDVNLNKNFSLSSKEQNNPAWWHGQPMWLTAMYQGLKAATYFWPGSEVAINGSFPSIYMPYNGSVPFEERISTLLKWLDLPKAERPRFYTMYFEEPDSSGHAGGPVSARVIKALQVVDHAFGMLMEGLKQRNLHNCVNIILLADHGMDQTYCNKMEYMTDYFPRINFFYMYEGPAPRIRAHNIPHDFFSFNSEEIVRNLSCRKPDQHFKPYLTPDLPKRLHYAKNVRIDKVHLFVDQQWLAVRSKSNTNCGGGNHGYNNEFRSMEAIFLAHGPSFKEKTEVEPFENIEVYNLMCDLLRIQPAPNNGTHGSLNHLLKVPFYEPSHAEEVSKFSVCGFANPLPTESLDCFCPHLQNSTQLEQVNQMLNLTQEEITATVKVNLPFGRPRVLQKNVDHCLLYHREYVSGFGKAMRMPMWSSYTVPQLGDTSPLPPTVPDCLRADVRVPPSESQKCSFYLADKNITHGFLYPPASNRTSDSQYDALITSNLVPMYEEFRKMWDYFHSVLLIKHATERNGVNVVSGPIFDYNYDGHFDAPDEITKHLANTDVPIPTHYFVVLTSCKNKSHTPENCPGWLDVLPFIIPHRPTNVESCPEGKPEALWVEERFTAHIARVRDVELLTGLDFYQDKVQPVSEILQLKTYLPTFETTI

human ENPP1 = target: T2, human ENPP1 (Homo sapiens, UniProt P22413); experiment: ENPP1 assay with ATP substrate (Transcreener AMP2/GMP2 TR-FRET); type: biochemical; details: 1 hour at room temperature
T2 construct: made in house
T2 sequence (P22413 1-925): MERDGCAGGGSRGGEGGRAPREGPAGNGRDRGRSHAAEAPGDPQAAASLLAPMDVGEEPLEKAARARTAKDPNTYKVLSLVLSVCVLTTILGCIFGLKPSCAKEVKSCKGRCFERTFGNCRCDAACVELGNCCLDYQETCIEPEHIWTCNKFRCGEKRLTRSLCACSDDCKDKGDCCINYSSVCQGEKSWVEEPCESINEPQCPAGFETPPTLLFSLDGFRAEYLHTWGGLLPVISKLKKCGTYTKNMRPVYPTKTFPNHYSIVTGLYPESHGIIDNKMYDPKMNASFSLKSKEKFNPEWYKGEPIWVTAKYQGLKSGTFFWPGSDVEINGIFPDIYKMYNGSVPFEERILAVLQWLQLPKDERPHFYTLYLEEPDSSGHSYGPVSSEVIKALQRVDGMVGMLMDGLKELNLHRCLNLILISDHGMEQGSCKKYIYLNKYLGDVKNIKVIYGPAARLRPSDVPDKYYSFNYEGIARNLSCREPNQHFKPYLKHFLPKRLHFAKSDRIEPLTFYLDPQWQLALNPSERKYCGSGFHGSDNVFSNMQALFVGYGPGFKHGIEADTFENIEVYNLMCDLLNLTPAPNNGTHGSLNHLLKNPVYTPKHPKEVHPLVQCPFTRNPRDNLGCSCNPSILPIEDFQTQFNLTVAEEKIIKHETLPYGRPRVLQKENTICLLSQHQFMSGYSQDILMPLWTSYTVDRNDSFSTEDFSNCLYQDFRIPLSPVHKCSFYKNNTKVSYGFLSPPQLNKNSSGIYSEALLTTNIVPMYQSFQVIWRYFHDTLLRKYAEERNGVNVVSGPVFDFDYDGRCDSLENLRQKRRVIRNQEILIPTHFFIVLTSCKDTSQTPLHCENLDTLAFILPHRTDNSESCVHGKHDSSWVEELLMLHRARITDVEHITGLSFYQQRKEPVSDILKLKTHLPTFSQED
How it was run: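 Reaction ran 1 h at room temperature in pH 7.5 Tris with MgCl2, TCEP, Tween 20 and 1% DMSO. ATP was added as a 300 nM stock and enzyme as an 8.5 μM stock. After EDTA stop, AMP was read by TR-FRET tracer displacement. Percent inhibition used enzyme/no-enzyme controls; IC50 was fitted with a variable slope.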

SMILES | IC50 (ENPP3) [µM] | IC50 (human ENPP1) [µM]
Cc1nc(NCc2ccc(S(N)(=O)=O)cc2)c2c(Br)nn(C)c2n1 [Example 2.89, 4-((3-Bromo-1,6-dimethyl-1H-pyrazolo[3,4-d]pyrimidin-4-yl)aminomethyl)-benzenesulfonamide] | < 0.1 | < 0.1
Cn1ncc2c(NCc3ccc(S(N)(=O)=O)cc3)nc(Cl)nc21 [Example 2.92, 4-((6-Chloro-1-methyl-1H-pyrazolo[3,4-d]pyrimidin-4-yl)aminomethyl)-benzenesulfonamide] | 0.1 to 1 | < 0.1
CCOc1nc(NCc2ccc(S(N)(=O)=O)cc2)c2c(Br)nn(C)c2n1 [Example 2.97, 4-((3-Bromo-6-ethoxy-1-methyl-1H-pyrazolo[3,4-d]pyrimidin-4-yl)aminomethyl)-benzenesulfonamide] | < 0.1 | < 0.1
Cn1nc(-c2ccccc2)c2c(NCc3ccc(S(N)(=O)=O)cc3)ncnc21 [Example 2.44, 4-(((1-Methyl-3-phenyl-1H-pyrazolo[3,4-d]pyrimidin-4-yl)amino)methyl)-benzenesulfonamide] | < 0.1 | < 0.1
Cc1cccc(CCCNC2CCN(c3ncnc4c(C)csc34)CC2)c1 [Example 3.17, 1-(7-Methylthieno[3,2-d]pyrimidin-4-yl)-N-(3-(m-tolyl)propyl)piperidin-4-amine] | 1 to 20 | 0.1 to 1
Cc1csc2c(N3CCN(CCCCc4ccncc4)CC3)ncnc12 [Example 3.7, 7-Methyl-4-(4-(4-(pyridin-4-yl)butyl)piperazin-1-yl)thieno[3,2-d]pyrimidine] | > 20 | 1 to 20
NS(=O)(=O)c1ccc(CNc2ncnc3scc(-c4ccccc4)c23)cc1 [Example 1.46, 4-(((5-Phenylthieno[2,3-d]pyrimidin-4-yl)amino)methyl)benzenesulfonamide] | < 0.1 | < 0.1
O=C(CCc1ccc(F)cc1)NC1CCN(c2ncnc3c(-c4ccccc4)csc23)CC1 [Example 3.57, 3-(4-Fluorophenyl)-N-(1-(7-phenylthieno[3,2-d]pyrimidin-4-yl)piperidin-4-yl)propanamide] | > 20 | > 20
COc1nc(NCc2ccc(S(N)(=O)=O)cc2)c2cnn(C)c2n1 [Example 2.94, 4-((6-Methoxy-1-methyl-1H-pyrazolo[3,4-d]pyrimidin-4-yl)aminomethyl)-benzenesulfonamide] | 0.1 to 1 | < 0.1
CC(C)Nc1cc(NCc2ccc(S(N)(=O)=O)cc2)c2cnn(C)c2n1 [Example 2.74, 4-(((6-(Isopropylamino)-1-methyl-1H-pyrazolo[3,4-b]pyridin-4-yl)amino)methyl)benzenesulfonamide] | 1 to 20 | 1 to 20
NS(=O)(=O)c1ccc(CNc2nc(Cl)nc3c2cnn3CC(F)(F)F)cc1 [Example 2.86, 4-((6-Chloro-1-(2,2,2-trifluoroethyl)-1H-pyrazolo[3,4-d]pyrimidin-4-yl)aminomethyl)-benzenesulfonamide] | 1 to 20 | 1 to 20
Cc1csc2c(N3CCC(NCCCc4ccccc4)CC3)ncnc12 [Example 3.27, 1-(7-Methylthieno[3,2-d]pyrimidin-4-yl)-N-(3-phenylpropyl)piperidin-4-amine] | > 20 | 0.1 to 1
Cc1csc2c(N3CCC(NC(=O)CCc4ccnc(F)c4)CC3)ncnc12 [Example 3.36, 3-(2-Fluoropyridin-4-yl)-N-(1-(7-methylthieno[3,2-d]pyrimidin-4-yl)piperidin-4-yl)propanamide] | > 20 | 1 to 20
CCN(CC)c1cc(NCc2ccc(S(N)(=O)=O)cc2)c2cnn(C)c2n1 [Example 2.79, 4-(((6-(Diethylamino)-1-methyl-1H-pyrazolo[3,4-b]pyridin-4-yl)amino)methyl)-benzenesulfonamide] | 1 to 20 | > 20
COCCNc1nc(NCc2ccc(S(N)(=O)=O)cc2)c2c(-c3ccccc3)csc2n1 [Example 1.54, 4-((2-(2-Methoxyethyl)amino-5-phenylthieno[2,3-d]pyrimidin-4-yl)aminomethyl)-benzenesulfonamide] | < 0.1 | < 0.1
NS(=O)(=O)N1CCC(CNc2nc(-c3ccccn3)nc3scc(-c4ccccc4)c23)CC1 [Example 1.67, 4-((5-Phenyl-2-(2-pyridyl)thieno[2,3-d]pyrimidin-4-yl)aminomethyl)-1-piperidinesulfonamide] | 1 to 20 | 0.1 to 1
Cn1ncc2c(NCc3ccc(S(N)(=O)=O)c(C(F)(F)F)c3)ccnc21 [Example 2.62, 4-(((1-Methyl-1H-pyrazolo[3,4-b]pyridin-4-yl)amino)methyl)-2-(trifluoromethyl)-benzenesulfonamide] | 0.1 to 1 | < 0.1
CCCCNc1cc(NCc2ccc(S(N)(=O)=O)cc2)c2cnn(C)c2n1 [Example 2.80, 4-(((6-(Butylamino)-1-methyl-1H-pyrazolo[3,4-b]pyridin-4-yl)amino)methyl)-benzenesulfonamide] | 1 to 20 | 1 to 20
CCNc1nc(NCc2ccc(S(N)(=O)=O)cc2)c2cnn(C)c2n1 [Example 2.49, 4-(((6-(Ethylamino)-1-methyl-1H-pyrazolo[3,4-d]pyrimidin-4-yl)amino)methyl)-benzenesulfonamide] | 0.1 to 1 | 0.1 to 1
CCN(CCO)c1nc(NCc2ccc(S(N)(=O)=O)cc2)c2c(-c3ccccc3)csc2n1 [Example 1.52, 4-((2-(N-Ethyl-N-(2-hydroxyethyl)amino)-5-phenylthieno[2,3-d]pyrimidin-4-yl)aminomethyl)-benzenesulfonamide] | 0.1 to 1 | < 0.1
Cc1ccccc1CCC(=O)NC1CCN(c2ncnc3c(C)csc23)CC1 [Example 3.14, N-(1-(7-Methylthieno[3,2-d]pyrimidin-4-yl)piperidin-4-yl)-3-(o-tolyl)propanamide] | > 20 | > 20
NS(=O)(=O)c1ccc(CNc2nc(-c3ccccn3)nc3scc(-c4ccccc4)c23)c(Cl)c1 [Example 1.21, 3-Chloro-4-(((5-phenyl-2-(pyridin-2-yl)thieno[2,3-d]pyrimidin-4-yl)amino)methyl)-benzenesulfonamide] | 0.1 to 1 | < 0.1
NS(=O)(=O)c1ccc(CNc2nc(-c3ccccn3)nc3scc(-c4ccccc4)c23)s1 [Example 1.31, 5-(((5-Phenyl-2-(pyridin-2-yl)thieno[2,3-d]pyrimidin-4-yl)amino)methyl)thiophene-2-sulfonamide] | 0.1 to 1 | < 0.1
Fc1ccc(CCCNC2CCN(c3ncnc4c(-c5ccccc5)csc34)CC2)cc1 [Example 3.58, N-(3-(4-Fluorophenyl)propyl)-1-(7-phenylthieno[3,2-d]pyrimidin-4-yl)piperidin-4-amine] | > 20 | 1 to 20
NS(=O)(=O)c1ccc(CNc2nc(Cl)nc3c2cnn3C2CC2)cc1 [Example 2.84, 4-((6-Chloro-1-cyclopropyl-1H-pyrazolo[3,4-d]pyrimidin-4-yl)aminomethyl)-benzenesulfonamide] | 1 to 20 | < 0.1

Reference: US12643910B2, “Substituted pyrazolo[3,4-b]pyridines as ectonucleotide pyrophosphatase/phosphodiesterase 1 (ENPP1) modulators” (SANFORD BURNHAM PREBYS MEDICAL DISCOVERY INSTITUTE, priority 2019, dated 2026)
